These results are taken from ChEMBL document CHEMBL1201862, “PubChem BioAssay data set” (2004).

Usually GI50 stands for the concentration that inhibits growth by half.

Structures are written as SMILES.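 48-hour exposure; five concentrations; linearly interpolated endpoints. Abbreviation: GI50, concentration required for 50% inhibition of growth.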 Calls of active or inactive are those of the source. Rule as the data show it: active = GI50 up to about 1.1 µM and inactive = higher.

Among the test systems are RPMI-8226; NCI-H522; SF-539; PC-3; EKVX; U-251; SR; RXF 393; SF-268; SNB-75; MDA-MB-435; CAKI-1; T47D; UACC-257; MDA-N; SN12C; LOX IMVI; A549; SK-MEL-28; OVCAR-5.
Common to all, as to experiment: DTP human tumour cell line panel, 48 h

Consider `CSc1ccc(NC(=O)Nc2cc(C)ccn2)cc1`, for which the GI50 is > 100 µM (inactive) in the test on RPMI-8226; > 100 µM (inactive) with NCI-H522; 2.36 µM (inactive) with SF-539; > 100 µM (inactive) in the test with PC-3; > 100 µM (inactive) with EKVX; > 100 µM (inactive) in the test with U-251. The GI50 in the test on SR, in the test on RXF 393, with SF-268, with SNB-75, in the test with MDA-MB-435 and in the test with CAKI-1 was > 100 µM (inactive) throughout. For the same compound, the GI50 in the test with T47D, in the test with UACC-257, in the test on MDA-N, in the test with SN12C, in the test on LOX IMVI and in the test with A549 was > 100 µM (inactive) each time. The GI50 in the test with SK-MEL-28 and in the test with OVCAR-5 was > 100 µM (inactive) each time.
Regarding `CCOC(=O)C1C(=O)CC(C)(O)C(C(=O)OCC)C1c1ccc(OC)cc1` (stereo not given), the GI50 in the test on RPMI-8226, in the test on NCI-H522, in the test on SF-539, in the test on PC-3, with EKVX and in the test on U-251 was > 100 µM (inactive) throughout. The GI50 with SR, in the test with RXF 393, in the test with SF-268, in the test with SNB-75, with MDA-MB-435 and in the test on CAKI-1 was > 100 µM (inactive) throughout. Moreover, the GI50 in the test with T47D, in the test on UACC-257, in the test with MDA-N, in the test on SN12C, with LOX IMVI and in the test on A549 was > 100 µM (inactive) throughout. Further, the GI50 with SK-MEL-28 and in the test on OVCAR-5 was > 100 µM (inactive) each time.
Regarding `C[C@]12CC[C@@H]3c4cc(OCC(F)(F)F)c(O)cc4C(=O)C[C@H]3[C@@H]1CC[C@@H]2O`, the GI50 in the test with RPMI-8226 is 3.2 µM (inactive); with NCI-H522 it was 3.3 µM (inactive); with SF-539 it was 5.09 µM (inactive); in the test on PC-3, 18.5 µM (inactive); with EKVX, 14.7 µM (inactive); with U-251, 4.67 µM (inactive). Besides, the GI50 in the test on SR was 1.51 µM (inactive); with RXF 393, 13 µM (inactive); in the test on SF-268, 13.7 µM (inactive); in the test on SNB-75, 5.36 µM (inactive); in the test on MDA-MB-435 it was 1.78 µM (inactive); in the test on CAKI-1, 6.93 µM (inactive). Further, the GI50 with T47D was 29.1 µM (inactive); with UACC-257, 12.2 µM (inactive); with MDA-N it was 1.6 µM (inactive); in the test with SN12C, 13.1 µM (inactive); with LOX IMVI, 5.79 µM (inactive); in the test with A549, 6.98 µM (inactive). Besides, the results for the GI50 in the test with SK-MEL-28 and with OVCAR-5 were 7.64 µM (inactive) and 29.9 µM (inactive), respectively.
Turning to `Cc1cc(NC2=CC(=O)C(=O)c3ccccc32)no1`, the GI50 in the test on RPMI-8226 was 6.05 µM (inactive); in the test on NCI-H522, 18.5 µM (inactive); in the test on SF-539 it was 6.4 µM (inactive); in the test with PC-3 it was 10.3 µM (inactive); in the test with EKVX, 16.1 µM (inactive); in the test with U-251, 3.92 µM (inactive). For the same compound, the GI50 with SR is 7.16 µM (inactive); in the test on RXF 393, 15.1 µM (inactive); in the test on SF-268, 15.2 µM (inactive); in the test with SNB-75 it was 9.44 µM (inactive); in the test on MDA-MB-435 it was 1.88 µM (inactive); with CAKI-1, 5.71 µM (inactive). Moreover, the GI50 with T47D was 11.9 µM (inactive); in the test on UACC-257 it was 6.92 µM (inactive); with MDA-N, 1.85 µM (inactive); in the test with SN12C, 2.88 µM (inactive); in the test with LOX IMVI it was 1.84 µM (inactive); in the test on A549 it was 5 µM (inactive). Further, the results for the GI50 in the test with SK-MEL-28 and with OVCAR-5 were 13.5 µM (inactive) and 5.5 µM (inactive), respectively.
On to `COc1cc2cc(C(=O)N3CC(CCl)c4ccccc43)[nH]c2c(OC)c1OC` (stereo not given), for which the GI50 in the test with RPMI-8226 is 10.6 µM (inactive); in the test on NCI-H522 it was 17.2 µM (inactive); in the test on SF-539, > 100 µM (inactive); with PC-3, 21.9 µM (inactive); in the test on EKVX it was > 66.1 µM (inactive); in the test on U-251 it was > 69.2 µM (inactive). Moreover, the GI50 with SR was 18.1 µM (inactive); in the test with RXF 393 it was > 100 µM (inactive); with SF-268 it was > 100 µM (inactive); with SNB-75, > 92.5 µM (inactive); in the test on MDA-MB-435, 19.2 µM (inactive); with CAKI-1, 61.2 µM (inactive). In addition, the GI50 with T47D was 13.8 µM (inactive); in the test on UACC-257 it was 99.3 µM (inactive); with MDA-N, 40.5 µM (inactive); in the test on SN12C, 5.6 µM (inactive); in the test on LOX IMVI, 44.8 µM (inactive); with A549, 47.1 µM (inactive). Further, the GI50 with SK-MEL-28 and with OVCAR-5 was > 100 µM (inactive) throughout.
`C=C1CC2(OC1=O)c1ccccc1C=Cc1ccccc12`: the GI50 in the test on RPMI-8226 was 1.42 µM (inactive); with NCI-H522 it was 1.76 µM (inactive); with SF-539, 2.83 µM (inactive); in the test with PC-3, 5.79 µM (inactive); in the test on EKVX it was 8.85 µM (inactive); in the test on U-251 it was 8.04 µM (inactive). For the same compound, the GI50 was 0.82 µM (active) in the test with SR; 3.19 µM (inactive) with RXF 393; 7.23 µM (inactive) in the test on SF-268; 9.18 µM (inactive) in the test with SNB-75; 1.68 µM (inactive) in the test with MDA-MB-435; 3.05 µM (inactive) with CAKI-1. Further, the GI50 is 1.93 µM (inactive) with T47D; 5.14 µM (inactive) with UACC-257; 1.96 µM (inactive) with MDA-N; 2.66 µM (inactive) with SN12C; 1.38 µM (inactive) in the test on LOX IMVI; 9.42 µM (inactive) in the test on A549. The GI50 in the test on SK-MEL-28 was 4.34 µM (inactive); in the test with OVCAR-5, 9.31 µM (inactive).
For the compound `CC(C)(C)C1(COC(=O)c2ccc(N)cc2)COC1`, the GI50 in the test on RPMI-8226 was 58.9 µM (inactive); in the test on NCI-H522, 47.6 µM (inactive); with SF-539 it was 32.4 µM (inactive); with PC-3, 47.2 µM (inactive); in the test on EKVX it was 39.4 µM (inactive); in the test on U-251, 58.1 µM (inactive). Also, the GI50 in the test with SR is 75.3 µM (inactive); in the test with RXF 393, 72.4 µM (inactive); with SF-268 it was > 100 µM (inactive); in the test on SNB-75, 76.6 µM (inactive); in the test with MDA-MB-435, 53.3 µM (inactive); with CAKI-1, > 100 µM (inactive). Moreover, the GI50 with T47D was 24.4 µM (inactive); in the test on UACC-257, 43.5 µM (inactive); in the test with MDA-N it was 66.1 µM (inactive); with SN12C, 94.6 µM (inactive); in the test on LOX IMVI it was > 100 µM (inactive); with A549, 52.6 µM (inactive). Further, the GI50 in the test with SK-MEL-28 and in the test with OVCAR-5 was > 100 µM (inactive) in each case.
For the compound `CCOC(=O)/C=C(/C(=O)OCC)n1ccc(=O)n(Cc2cnnn2CCCCOC(C)=O)c1=O`, the GI50 is 59.2 µM (inactive) with RPMI-8226; 20.7 µM (inactive) in the test on NCI-H522; 36.6 µM (inactive) in the test on SF-539; > 100 µM (inactive) in the test on PC-3; 63.8 µM (inactive) in the test on EKVX; > 100 µM (inactive) with U-251. Further, the GI50 with SR is 27.9 µM (inactive); in the test on RXF 393 it was > 100 µM (inactive); with SF-268, > 100 µM (inactive); in the test with SNB-75, > 100 µM (inactive); with MDA-MB-435, > 100 µM (inactive); in the test with CAKI-1, 30.2 µM (inactive). The GI50 in the test on T47D, in the test with UACC-257, with MDA-N, in the test on SN12C, with LOX IMVI and in the test with A549 was > 100 µM (inactive) in each case. The GI50 with SK-MEL-28 and with OVCAR-5 was > 100 µM (inactive) in each case.
Consider `CC1=NN2C(=O)CC(=O)N=C2S1`, for which the GI50 in the test on RPMI-8226, with NCI-H522, with SF-539, in the test with PC-3, with EKVX and with U-251 was > 100 µM (inactive) in each case. Further, the GI50 with SR, in the test on RXF 393, in the test on SF-268, with SNB-75, in the test on MDA-MB-435 and with CAKI-1 was > 100 µM (inactive) in each case. Further, the GI50 with T47D, with UACC-257, with MDA-N, in the test on SN12C, in the test on LOX IMVI and in the test on A549 was > 100 µM (inactive) throughout. Moreover, the GI50 with SK-MEL-28 and in the test on OVCAR-5 was > 100 µM (inactive) in each case.
For the compound `N#C/C(=C\c1ccc2[nH]ccc2c1)C(=O)c1ccc(O)c(O)c1`, the GI50 was > 73.5 µM (inactive) with RPMI-8226; 29.4 µM (inactive) with NCI-H522; > 57.4 µM (inactive) in the test on SF-539; > 100 µM (inactive) with PC-3; 57.9 µM (inactive) in the test on EKVX; 41.6 µM (inactive) in the test with U-251. Moreover, the GI50 with SR is 44.2 µM (inactive); with RXF 393 it was > 94 µM (inactive); in the test with SF-268 it was > 64.9 µM (inactive); in the test with SNB-75, > 100 µM (inactive); in the test with MDA-MB-435, 71.8 µM (inactive); in the test on CAKI-1, > 100 µM (inactive). Further, the GI50 was 62.8 µM (inactive) with T47D; > 80.5 µM (inactive) in the test with UACC-257; > 100 µM (inactive) in the test with MDA-N; > 82.4 µM (inactive) with SN12C; 63.7 µM (inactive) in the test on LOX IMVI; > 57.7 µM (inactive) in the test on A549. In addition, the GI50 with SK-MEL-28 is > 100 µM (inactive); in the test with OVCAR-5, > 73.8 µM (inactive).
